In patent US9782368B2, “Use of N,N-bis-2-mercaptoethyl isophthalamide” (EMERAMED LIMITED, priority 2014, dated 2017):

What was measured:
[1] = Ascorbate depletion assay, 9,10-PQ-sponsored oxidation, recycling of DHA; details: 9,10-PQ model, 200 μM added at 60 minutes
Procedure: (§1) The kinetics of ascorbate oxidation, sponsored by both 1 μM 9,10-PQ and 2 μM copper sulphate (CuSO4), was examined using the ascorbate depletion assay (Kelly et al, Res. Rep. Health Eff. Inst., 163, 3 (2011). 9,10-PQ was employed so that the action of NBMI could be examined in isolation of its chelation properties.
(§2) All experiments were performed in triplicate in UV 96 well flat-bottomed plates (Greiner bio-one) at a final volume of 200 μL. Exposures were initiated by the addition of 20 μL of a concentrated stock of ascorbate (2 mM) into each well containing 160 μL of Chelex-100 resin treated water (containing 10% DMSO), plus either 10 μL of water, CuSO4 stock solution at 4 mM or 9,10-PQ stock solution at 2 mM, and 10 μL of NMBI (4 mM and […]).
(§3) All solutions were prepared in Chelex-100 resin treated water (containing 10% DMSO). This yielded final concentrations in the wells of […], 2 μM CuSO4, or 1 μM 9,10-PQ and between 10 and 200 μM of NBMI.
(§4) Immediately prior to the addition of the ascorbate to each assay well, the plate was pre-incubated for 10 minutes at 37° C. in a plate reader (Spectra Max 190). During the exposure, the plate was maintained at this temperature. After addition of ascorbate, the concentration remaining in each well was monitored every 2 minutes for a period of two hours by measuring the absorbance at 265 nm. The ascorbate concentration was determined with reference to a standard curve, with the rate of ascorbate oxidation determined by performing a linear regression through the initial part of a concentration verses time plot using Microcal Software Limited's OriginLab (version 5.0). This was performed for each of the triplicates and the rate of ascorbate depletion was finally expressed as mean mol s 1×10^−9 depletion of ascorbate±standard deviation.
(§5) For the experiments in which the impact of adding NBMI to the ascorbate was measured, CuSO4 and 9,10-PQ depletion assays were examined later in the time course. The plates were ran with 190 μL only for the first 55-60 minutes, after which they were removed from the plate reader and 10 μL of either the NMBI or the known reducing agent, DTT stock solution, or water was added to each well. The plate was then returned to the plate reader and the absorbance at 265 nm monitored for a further 60 minutes.
(§6) The immediate increase in the measured ascorbate concentrations was determined and is referred to as the ‘jump’, as a measure of immediate recycling capacity. The sustained ‘increase’ over the remaining 60 minutes of the incubation was also determined.

[2] = Ascorbate depletion assay, CuSO4-sponsored oxidation, recycling of DHA; details: CuSO4 model, 200 μM added at 60 minutes
Procedure: as §1, §2, §3, §4, §5, §6

[3] = tested on: IL-6 and IL-8 secretion in A549 cells; assay: Particle-induced secretion of pro-inflammatory cytokines (ELISA) in A549 cells; format: cell-based; details: pre-incubation 5 mM NAC (positive control); cell line not specified (A549 and BEAS-2B tested)
Procedure: Secretion of the pro-inflammatory cytokines interleukin (IL)-6, IL-8 (as well as GM-CSF and MCP-1) into cell media in response to particle exposure was measured in A549 and BEAS-2B cells using the following method.
Lung epithelial cells were seeded at 5×10^4 in 24-well plates. After pre-incubation with NBMI, the anti-oxidant compound, N-acetyl-L-cysteine (NAC), which was used as a positive control, or vehicle, for 3 hours the medium was removed.
Fresh media containing various particles (as below) in different concentrations was in a total volume of 0.5 ml for an additional 24 hours. The supernatants were then separated from the cells by centrifugation.
IL-8, IL-6, GM-CSF and MCP-1 were measured in the cell free fluid using the DuoSet ELISA Development kit (R&D Systems, Abingdon, UK) according to manufacturer's protocol.
Exposure to medium only served as negative control. Each experiment was performed twice with 4 replicates.
The effect of pre-incubation with 50 μM NBMI on particle-induced cytokine formation was tested at various concentrations of relevant particles.

O[C@H](CS)[C@H](O)CS (racemic) [DTT, dithiothreitol, reference compound]
immediate rebound increase in ascorbate [1]: 5.1 µM | whether recovery of ascorbate was sustained [1]: not sustained | immediate 'jump' in ascorbate concentration [2]: 7.93 ± 6.58 µM | sustained 'increase' in ascorbate over remaining 60 minutes [2]: 10.79 ± 2.45 µM

CC(=O)N[C@@H](CS)C(=O)O [NAC, N-acetyl-L-cysteine, reference compound]
reduction of secretion of inflammatory cytokines [3]: effective in reducing the secretion of inflammatory cytokines
